According to the OligoGym collection:
Oligonucleotides are written 5' to 3', each unit as a sugar letter and its base; * is a phosphorothioate linkage, no mark a phosphodiester; rarer units and linkages stand in square brackets, end groups in braces. Plain capitals give the bases only. Oligonucleotides are given in HELM: sugar(base)linkage, 5' to 3'; d 2'-deoxyribose, r ribose, m 2'-O-methylribose, p phosphate. ss, as = sense and antisense strand; d = 2'-deoxy (DNA); r = 2'-OH (RNA)

What follows are substances tested against CDC34 (assay: reporter assay of Huesken 2005). Conditions: siRNA.
Note: test concentration or dose not given here.

Substance	normalised inhibition (eCFP-eYFP dual reporter) [%]
RNA1{r(C)p.r(C)p.r(A)p.r(C)p.r(C)p.r(C)p.r(G)p.r(C)p.r(C)p.r(G)p.r(G)p.r(U)p.r(G)p.r(G)p.r(A)p.r(C)p.r(G)p.r(A)p.r(C)p.d(T)p.d(T)}|RNA2{r(G)p.r(U)p.r(C)p.r(G)p.r(U)p.r(C)p.r(C)p.r(A)p.r(C)p.r(C)p.r(G)p.r(G)p.r(C)p.r(G)p.r(G)p.r(G)p.r(U)p.r(G)p.r(G)p.d(A)p.d(G)}$$$RNA1{StrandType:ss}|RNA2{StrandType:as}$	44.2
RNA1{r(U)p.r(G)p.r(A)p.r(U)p.r(C)p.r(U)p.r(C)p.r(C)p.r(C)p.r(U)p.r(C)p.r(C)p.r(U)p.r(G)p.r(A)p.r(A)p.r(C)p.r(G)p.r(A)p.d(T)p.d(T)}|RNA2{r(U)p.r(C)p.r(G)p.r(U)p.r(U)p.r(C)p.r(A)p.r(G)p.r(G)p.r(A)p.r(G)p.r(G)p.r(G)p.r(A)p.r(G)p.r(A)p.r(U)p.r(C)p.r(A)p.d(C)p.d(A)}$$$RNA1{StrandType:ss}|RNA2{StrandType:as}$	70
RNA1{r(C)p.r(U)p.r(G)p.r(A)p.r(G)p.r(U)p.r(G)p.r(U)p.r(G)p.r(A)p.r(U)p.r(C)p.r(U)p.r(C)p.r(C)p.r(C)p.r(U)p.r(C)p.r(C)p.d(T)p.d(T)}|RNA2{r(G)p.r(G)p.r(A)p.r(G)p.r(G)p.r(G)p.r(A)p.r(G)p.r(A)p.r(U)p.r(C)p.r(A)p.r(C)p.r(A)p.r(C)p.r(U)p.r(C)p.r(A)p.r(G)p.d(G)p.d(A)}$$$RNA1{StrandType:ss}|RNA2{StrandType:as}$	23.2
RNA1{r(C)p.r(C)p.r(U)p.r(G)p.r(A)p.r(G)p.r(U)p.r(G)p.r(U)p.r(G)p.r(A)p.r(U)p.r(C)p.r(U)p.r(C)p.r(C)p.r(C)p.r(U)p.r(C)p.d(T)p.d(T)}|RNA2{r(G)p.r(A)p.r(G)p.r(G)p.r(G)p.r(A)p.r(G)p.r(A)p.r(U)p.r(C)p.r(A)p.r(C)p.r(A)p.r(C)p.r(U)p.r(C)p.r(A)p.r(G)p.r(G)p.d(A)p.d(G)}$$$RNA1{StrandType:ss}|RNA2{StrandType:as}$	58.4
RNA1{r(G)p.r(G)p.r(A)p.r(G)p.r(U)p.r(A)p.r(C)p.r(A)p.r(C)p.r(A)p.r(G)p.r(A)p.r(C)p.r(A)p.r(U)p.r(C)p.r(A)p.r(U)p.r(C)p.d(T)p.d(T)}|RNA2{r(G)p.r(A)p.r(U)p.r(G)p.r(A)p.r(U)p.r(G)p.r(U)p.r(C)p.r(U)p.r(G)p.r(U)p.r(G)p.r(U)p.r(A)p.r(C)p.r(U)p.r(C)p.r(C)p.d(C)p.d(G)}$$$RNA1{StrandType:ss}|RNA2{StrandType:as}$	76.6
RNA1{r(A)p.r(C)p.r(C)p.r(U)p.r(C)p.r(U)p.r(U)p.r(C)p.r(U)p.r(A)p.r(C)p.r(G)p.r(A)p.r(C)p.r(G)p.r(A)p.r(C)p.r(U)p.r(A)p.d(T)p.d(T)}|RNA2{r(U)p.r(A)p.r(G)p.r(U)p.r(C)p.r(G)p.r(U)p.r(C)p.r(G)p.r(U)p.r(A)p.r(G)p.r(A)p.r(A)p.r(G)p.r(A)p.r(G)p.r(G)p.r(U)p.d(C)p.d(T)}$$$RNA1{StrandType:ss}|RNA2{StrandType:as}$	89.3
RNA1{r(C)p.r(A)p.r(C)p.r(C)p.r(C)p.r(G)p.r(C)p.r(C)p.r(G)p.r(G)p.r(U)p.r(G)p.r(G)p.r(A)p.r(C)p.r(G)p.r(A)p.r(C)p.r(C)p.d(T)p.d(T)}|RNA2{r(G)p.r(G)p.r(U)p.r(C)p.r(G)p.r(U)p.r(C)p.r(C)p.r(A)p.r(C)p.r(C)p.r(G)p.r(G)p.r(C)p.r(G)p.r(G)p.r(G)p.r(U)p.r(G)p.d(G)p.d(A)}$$$RNA1{StrandType:ss}|RNA2{StrandType:as}$	25.4
RNA1{r(C)p.r(G)p.r(C)p.r(G)p.r(C)p.r(C)p.r(U)p.r(C)p.r(A)p.r(A)p.r(G)p.r(U)p.r(U)p.r(C)p.r(C)p.r(C)p.r(C)p.r(A)p.r(U)p.d(T)p.d(T)}|RNA2{r(A)p.r(U)p.r(G)p.r(G)p.r(G)p.r(G)p.r(A)p.r(A)p.r(C)p.r(U)p.r(U)p.r(G)p.r(A)p.r(G)p.r(G)p.r(C)p.r(G)p.r(C)p.r(G)p.d(C)p.d(C)}$$$RNA1{StrandType:ss}|RNA2{StrandType:as}$	51.1
RNA1{r(G)p.r(G)p.r(U)p.r(G)p.r(G)p.r(A)p.r(C)p.r(G)p.r(C)p.r(G)p.r(G)p.r(A)p.r(G)p.r(C)p.r(G)p.r(U)p.r(G)p.r(A)p.r(C)p.d(T)p.d(T)}|RNA2{r(G)p.r(U)p.r(C)p.r(A)p.r(C)p.r(G)p.r(C)p.r(U)p.r(C)p.r(C)p.r(G)p.r(C)p.r(G)p.r(U)p.r(C)p.r(C)p.r(A)p.r(C)p.r(C)p.d(T)p.d(T)}$$$RNA1{StrandType:ss}|RNA2{StrandType:as}$	53.4
RNA1{r(C)p.r(G)p.r(U)p.r(C)p.r(A)p.r(G)p.r(G)p.r(A)p.r(C)p.r(C)p.r(A)p.r(U)p.r(U)p.r(C)p.r(U)p.r(C)p.r(C)p.r(U)p.r(G)p.d(T)p.d(T)}|RNA2{r(C)p.r(A)p.r(G)p.r(G)p.r(A)p.r(G)p.r(A)p.r(A)p.r(U)p.r(G)p.r(G)p.r(U)p.r(C)p.r(C)p.r(U)p.r(G)p.r(A)p.r(C)p.r(G)p.d(T)p.d(T)}$$$RNA1{StrandType:ss}|RNA2{StrandType:as}$	72.1
RNA1{r(A)p.r(C)p.r(C)p.r(A)p.r(U)p.r(U)p.r(C)p.r(U)p.r(C)p.r(C)p.r(U)p.r(G)p.r(A)p.r(G)p.r(U)p.r(G)p.r(U)p.r(G)p.r(A)p.d(T)p.d(T)}|RNA2{r(U)p.r(C)p.r(A)p.r(C)p.r(A)p.r(C)p.r(U)p.r(C)p.r(A)p.r(G)p.r(G)p.r(A)p.r(G)p.r(A)p.r(A)p.r(U)p.r(G)p.r(G)p.r(U)p.d(C)p.d(C)}$$$RNA1{StrandType:ss}|RNA2{StrandType:as}$	81.3
RNA1{r(C)p.r(G)p.r(A)p.r(C)p.r(G)p.r(A)p.r(C)p.r(U)p.r(A)p.r(C)p.r(U)p.r(A)p.r(C)p.r(G)p.r(G)p.r(G)p.r(A)p.r(C)p.r(G)p.d(T)p.d(T)}|RNA2{r(C)p.r(G)p.r(U)p.r(C)p.r(C)p.r(C)p.r(G)p.r(U)p.r(A)p.r(G)p.r(U)p.r(A)p.r(G)p.r(U)p.r(C)p.r(G)p.r(U)p.r(C)p.r(G)p.d(T)p.d(A)}$$$RNA1{StrandType:ss}|RNA2{StrandType:as}$	62.7

What follows are substances tested against UBE2L3 (assay: reporter assay of Huesken 2005). Conditions: siRNA.

Substance	normalised inhibition (eCFP-eYFP dual reporter) [%]
sense rArGrCrArCrCrCrGrCrUrUrCrGrGrGrCrUrGrAdTdT / antisense rUrCrArGrCrCrCrGrArArGrCrGrGrGrUrGrCrUdCdA	37.6
sense rCrUrGrArGrCrArCrCrCrGrCrUrUrCrGrGrGrCdTdT / antisense rGrCrCrCrGrArArGrCrGrGrGrUrGrCrUrCrArGdGdC	51.7
sense rCrCrArArArCrArUrCrGrArCrGrArArArArGrGdTdT / antisense rCrCrUrUrUrUrCrGrUrCrGrArUrGrUrUrUrGrGdGdT	59.4
sense rArUrUrGrArCrUrUrGrGrCrArArGrGrGrCrUrUdTdT / antisense rArArGrCrCrCrUrUrGrCrCrArArGrUrCrArArUdAdA	58.7
